# Measured values from publication PMC8286840, “Identifying SARS-CoV-2 antiviral compounds by screening for small molecule inhibitors of Nsp3 papain-like protease” (Biochemical Journal, 2021).
# Where a name gives a salt, the structure may show the parent alone. Read-outs that look alike come from different tables or passages of the source.
# Columns and labels:
# [1] = target: T1, SARS-CoV-2 PLpro (nsp3 1564–1878) (Severe acute respiratory syndrome coronavirus 2, UniProt P0DTD1); assay: biochemical; parameters: FRET-quenched peptide (Pro3) cleavage by PLpro, 10 min pre-incubation, slope over 20 min, normalised to no-compound control; conditions: high concentration screen, read-out: % of control remaining
# [2] = target: T1, SARS-CoV-2 PLpro (nsp3 1564–1878); assay: biochemical; parameters: FRET-quenched peptide (Pro3) cleavage by PLpro, 10 min pre-incubation, slope over 20 min, normalised to no-compound control; conditions: low concentration screen, read-out: % of control remaining
compound,measurement,setting,value
"O=C1NC(=O)c2c1c1c3ccccc3[nH]c1c1[nH]c3ccccc3c21 [Arcyriaflavin A, Synthetic]",remaining activity at 3.75 µM,[1]; Well no.=2333,102%
same,remaining activity at 1.25 µM,[2]; Well no.=2333,105%
COc1ccc2c(c1)CC[C@@H]1[C@@H]2CC[C@]2(C)[C@@H](NCCCCCCN3C(=O)C=CC3=O)CC[C@@H]12 [U-73122],remaining activity at 3.75 µM,[1]; Well no.=1332,105%
same,remaining activity at 1.25 µM,[2]; Well no.=1332,103%
CN[C@@H](C)C(=O)N[C@H](C(=O)N1CCC[C@H]1C(=O)Nc1snnc1-c1ccccc1)C1CCCCC1 [GDC-0152],remaining activity at 3.75 µM,[1]; Well no.=6692,95.6%
same,remaining activity at 1.25 µM,[2]; Well no.=6692,103%
CCCCC/C=C\C/C=C\C/C=C\C=C\C1CCCC(=O)O1 (racemic),remaining activity at 3.75 µM,[1]; Well no.=4277,102%
same,remaining activity at 1.25 µM,[2]; Well no.=4277,105%
NCCC(=O)N[C@@H](Cc1cnc[nH]1)C(=O)O [L-Carnosine],remaining activity at 3.75 µM,[1]; Well no.=7017,111%
same,remaining activity at 1.25 µM,[2]; Well no.=7017,112%
"COc1cc2ncnc(Nc3cccc(O)c3)c2cc1OC [WHI-P180, Hydrochloride]",remaining activity at 3.75 µM,[1]; Well no.=2679,96.7%
same,remaining activity at 1.25 µM,[2]; Well no.=2679,96%
O=C1O[C@H]([C@@H](O)CO)C(O)=C1O [Ascorbic acid],remaining activity at 3.75 µM,[1]; Well no.=4039,99.5%
same,remaining activity at 1.25 µM,[2]; Well no.=4039,99.8%
Clc1ccc2c(c1)N=C(N1CCNCC1)c1ccccc1N2 [N-Desmethylclozapine],remaining activity at 3.75 µM,[1]; Well no.=7229,98.9%
same,remaining activity at 1.25 µM,[2]; Well no.=7229,100%
O=C(ON1C(=O)CCC1=O)N1CCN(C(c2ccc(Cl)cc2)c2ccc(Cl)cc2)CC1 [MJN110],remaining activity at 3.75 µM,[1]; Well no.=5560,100%
same,remaining activity at 1.25 µM,[2]; Well no.=5560,97.4%
CC(C)/N=c1\cc2n(-c3ccc(Cl)cc3)c3ccccc3nc-2cc1Nc1ccc(Cl)cc1 [Clofazimine],remaining activity at 3.75 µM,[1]; Well no.=5649,100%
same,remaining activity at 1.25 µM,[2]; Well no.=5649,101%
COc1cc2nc(N3CCN(C(=O)C4CCCO4)CC3)nc(N)c2cc1OC (stereo not shown) [Terazosin (hydrochloride dihydrate)],remaining activity at 3.75 µM,[1]; Well no.=7519,84.5%
same,remaining activity at 1.25 µM,[2]; Well no.=7519,98.6%
CN(C)CCN(Cc1ccccc1)c1ccccn1 [Tripelennamine (hydrochloride)],remaining activity at 3.75 µM,[1]; Well no.=7663,98.8%
same,remaining activity at 1.25 µM,[2]; Well no.=7663,99.1%
CCNCc1nc2c(N)nc3ccccc3c2n1CC(C)(C)O [Gardiquimod trifluoroacetate],remaining activity at 3.75 µM,[1]; Well no.=8131,103%
same,remaining activity at 1.25 µM,[2]; Well no.=8131,105%
COc1cc2ncc(-c3ccccc3)nc2cc1OC [AG 1296],remaining activity at 3.75 µM,[1]; Well no.=2613,90.5%
same,remaining activity at 1.25 µM,[2]; Well no.=2613,91.6%
CC(C)Nc1cccnc1N1CCN(C(=O)c2cc3cc(NS(C)(=O)=O)ccc3[nH]2)CC1 [Delavirdine mesylate],remaining activity at 3.75 µM,[1]; Well no.=1676,101%
same,remaining activity at 1.25 µM,[2]; Well no.=1676,108%
CCOC(=O)CCC(=O)O[C@H]1[C@H](O[C@@H]2[C@@H](C)[C@H](O[C@H]3C[C@@](C)(OC)[C@@H](O)[C@H](C)O3)[C@@H](C)C(=O)O[C@H](CC)[C@@](C)(O)[C@H](O)[C@@H](C)C(=O)[C@H](C)C[C@@]2(C)O)O[C@H](C)C[C@@H]1N(C)C [Erythromycin Ethylsuccinate],remaining activity at 3.75 µM,[1]; Well no.=5126,102%
same,remaining activity at 1.25 µM,[2]; Well no.=5126,100%
Nc1ncnc2c1c(-c1cccc(OCc3ccccc3)c1)cn2C1CC(CN2CCCC2)C1 (stereo in doubt) [NVP-ADW742],remaining activity at 3.75 µM,[1]; Well no.=4629,93.2%
same,remaining activity at 1.25 µM,[2]; Well no.=4629,95.7%
CC(C)(Cc1nc(-c2ccc(O)cn2)no1)C(=O)NC1=C(C(=O)O)CCCC1 [MK-6892],remaining activity at 3.75 µM,[1]; Well no.=7953,100%
same,remaining activity at 1.25 µM,[2]; Well no.=7953,101%
O=C(O)Cn1c2c(c3cc(F)ccc31)CN(C(=O)c1cccc3ccccc13)CC2 [Setipiprant],remaining activity at 3.75 µM,[1]; Well no.=7707,103%
same,remaining activity at 1.25 µM,[2]; Well no.=7707,99.9%
CC(N)=NCCCCC(N)C(=O)O (stereo in doubt) [L-N6-(1-Iminoethyl)lysine hydrochloride],remaining activity at 3.75 µM,[1]; Well no.=871,102%
same,remaining activity at 1.25 µM,[2]; Well no.=871,107%
O=C(O)Cc1ccccc1Nc1c(Cl)cccc1Cl [Diclofenac],remaining activity at 3.75 µM,[1]; Well no.=1978,102%
same,remaining activity at 1.25 µM,[2]; Well no.=1978,102%
CC1(C)CCC(CN2CCN(c3ccc(C(=O)NS(=O)(=O)c4ccc(NCC5CCOCC5)c([N+](=O)[O-])c4)c(Oc4cnc5[nH]ccc5c4)c3)CC2)=C(c2ccc(Cl)cc2)C1 [Venetoclax],remaining activity at 3.75 µM,[1]; Well no.=6396,104%
same,remaining activity at 3.75 µM,[1]; Well no.=7400,94.7%
same,remaining activity at 1.25 µM,[2]; Well no.=6396,107%
same,remaining activity at 1.25 µM,[2]; Well no.=7400,91.2%
CC(=O)c1c(C)c2cnc(Nc3ccc(N4CCNCC4)cn3)nc2n(C2CCCC2)c1=O [Palbociclib (hydrochloride)],remaining activity at 3.75 µM,[1]; Well no.=7350,97.5%
same,remaining activity at 1.25 µM,[2]; Well no.=7350,96.3%
CCOC(=O)C1=C(C)NC(=S)NC1c1cccc(O)c1 (stereo not shown) [Monastrol],remaining activity at 3.75 µM,[1]; Well no.=891,106%
same,remaining activity at 1.25 µM,[2]; Well no.=891,106%
N[C@@H]1CONC1=O [D-Cycloserine],remaining activity at 3.75 µM,[1]; Well no.=78,102%
same,remaining activity at 1.25 µM,[2]; Well no.=78,100%
C[C@H]1O[C@@H](n2cc(F)c(=O)[nH]c2=O)[C@H](O)[C@@H]1O [5-fluoro-5'-deoxyuridine],remaining activity at 3.75 µM,[1]; Well no.=663,98.8%
same,remaining activity at 1.25 µM,[2]; Well no.=663,102%
COc1cccc(OC)c1OCCNCC1CSc2ccccc2O1 (stereo not shown) [Benoxathian hydrochloride],remaining activity at 3.75 µM,[1]; Well no.=323,93.6%
same,remaining activity at 1.25 µM,[2]; Well no.=323,99.7%
CN1C(=O)COc2c(C(=O)NC3CN4CCC3CC4)cc(Cl)cc21 (stereo not shown) [Azasetron (hydrochloride)],remaining activity at 3.75 µM,[1]; Well no.=8243,96.1%
same,remaining activity at 1.25 µM,[2]; Well no.=8243,96.2%
CCNC(=O)c1noc(-c2cc(C(C)C)c(O)cc2O)c1-c1ccc(CN2CCOCC2)cc1 [AUY922 (NVP-AUY922)],remaining activity at 3.75 µM,[1]; Well no.=5005,102%
same,remaining activity at 1.25 µM,[2]; Well no.=5005,103%
Oc1ccc(C2CNCc3sccc32)cc1O (stereo not shown) [SKF 89626],remaining activity at 3.75 µM,[1]; Well no.=1456,99.7%
same,remaining activity at 1.25 µM,[2]; Well no.=1456,98.5%
NCCNc1nonc1C(=Nc1ccc(F)c(Br)c1)NO [IDO-IN-3],remaining activity at 3.75 µM,[1]; Well no.=8693,101%
same,remaining activity at 1.25 µM,[2]; Well no.=8693,107%
CN1CCN(CCCN2c3ccccc3Sc3ccc(C(F)(F)F)cc32)CC1 [Trifluoperazine dihydrochloride],remaining activity at 3.75 µM,[1]; Well no.=1326,100%
same,remaining activity at 1.25 µM,[2]; Well no.=1326,101%
C[C@@H]1O[C@@H](OC[C@H]2O[C@@H](Oc3c(-c4ccc(OCCO)c(OCCO)c4)oc4cc(OCCO)cc(O)c4c3=O)[C@H](O)[C@@H](O)[C@@H]2O)[C@H](O)[C@H](O)[C@H]1O [Troxerutin],remaining activity at 3.75 µM,[1]; Well no.=4866,93.8%
same,remaining activity at 1.25 µM,[2]; Well no.=4866,95.4%
"O=C(O)c1cn(C2CC2)c2cc(N3C[C@@H]4C[C@H]3CN4)c(F)cc2c1=O [1-cyclopropyl-7-[(1S,4S)-2,5-diazabicyclo[2.2.1]hept-2-yl]-6-fluoro-4-oxo-1,4-dihydro-3-quinolinecarboxylic acid methanesulfonate hydrate]",remaining activity at 3.75 µM,[1]; Well no.=5598,86.5%
same,remaining activity at 1.25 µM,[2]; Well no.=5598,91.4%
